Where two headings read alike, the source gives them in different places.
Key:
[1] = target: T1, interaction of ICAM-1 with the Leukointegrin CD18/CD11a (LFA-1) (Homo sapiens, UniProt P05107+P20701); assay: Assay to determine inhibition of LFA-1 binding to ICAM-1 (immunopurified LFA-1 on plate-bound sICAM-1, ELISA readout)
T1 construct: endogenous in cells; sICAM-1: made in house, secreted from transfected CHO DUX cells

[2] = tested on: cell bound form of LFA-1 (CD18, CD11a) with ICAM-1, SKW3 cells; assay: Inhibition of SKW3 cell binding to ICAM-1 (PMA-stimulated); assay type: cell-based, human; settings: Homo sapiens, read-out: Assay to Detect SKW3 Cells Binding to ICAM IC50
How it was run: (§1)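 Plates coated with sICAM-1 (40 μg/mL) or fibronectin (100 μg/mL) for 1 h; SKW3 cells in RPMI/15% FBS activated with PMA (50 μg/mL final) added with compound, 2 h at 37° C. Unbound cells washed off; value is concentration (μM) giving 50% binding inhibition.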

[3] = tested on: allogeneic cell transplant response, popliteal lymph node; assay: In vivo allogeneic cell transplant model (popliteal lymph node weight); settings: Mus musculus, po; mice, per os, dose at which 50% inhibition is observed; read-out: Allogeneic Cell Transplantation Assay ACT ED50
Text: In vivo: Allogeneic Cell Transplant Model Purpose of Assay: The ability of cells to recognize other cells from self or from another genetically different individual (non-self) is an important property in maintaining the integrity of tissue and organ structure. The allogeneic cell transplant response is an important model for studies of transplant rejection and immunocompetence. This T-cell-mediated immune response can be induced in adult mice by the injection of lymphocytes from a histoincompatible mouse strain into the footpad . This response is characterized by T-cell proliferation which is limited to the popliteal lymph node that receives drainage from the injected footpad area. No in vitro system can completely duplicate this in vivo response. Thus, this animal model can be used to assess the ability of a test compound to suppress transplant rejection. Description of Assay Protocol: Experiments are conducted using male or female mice (20-26 grams). Any histoincompatible mouse strains suffice for donor and recipient populations. Typically DBA mice are used as donors and […] mice are used as recipients. A minimum of 1 week stabilization and conditioning period is required before use during which time the animals are maintained in accordance with the Animal Resource Center S.O.P. Each study utilizes 36 recipient mice divided into groups of 6. The tests last approximately four days. Donor mice are sacrificed by CO2 asphyxiation and spleens are removed and made into a cell suspension. The cells (1.0·10^7/metatarsal in 0.05 mL) are injected intra dermal (according to standard protocol) into the dorsal metatarsal skin of recipient mice. Four days later, the animals are sacrificed by CO2 asphyxiation and the popliteal nodes are removed and weighed. Groups of mice receiving putative immunosuppressive agents are dosed subcutaneously, intraperitoneally or orally one hour prior to cell injection and daily thereafter according to standard protocol. Student's T-test was used to determine significant differences between popliteal lymph nodes of groups of untreated mice and those mice treated with putative immunosuppressive agents (see: Kroczek, R. A.; Black, C. D. V.; Barbet, […]. Immunology, 1987, 139, 3597). Data are reported as the dose at which 50% inhibition is observed and the manner in which the compound was administered. In Table 23, the following legends are applicable: ^and=not determined. ^bpercent inhibition at 160 μg/mL. ^cno inhibition observed up to highest dose. Exact quantification not always possible due to intrinsic toxicity of compound (see MTT result). ^[…] inhibition (concentration in μM ). ^eapproximated from incomplete dose-response curve. ^fnot determined; compound is a synthesis intermediate.

[4] = tested on: SKW3 cells
[5] = tested on: LFA-1 dependent aggregation of JY cells; assay: JY cell homotypic aggregation assay (PMA-stimulated); assay type: cell-based, human; settings: Homo sapiens
How it was run: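 JY cells (2·10^5 cells/well) in RPMI 1640 with 10% FCS incubated with test compound and […]; cells settle spontaneously and aggregation is scored at various time points. Values are concentrations (μM) giving 50% inhibition of binding.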

[6] = tested on: cell bound fibronectin receptor (VLA4) with fibronectin, SKW3 cells; assay: Inhibition of SKW3 cell binding to fibronectin (selectivity counter-assay); assay type: cell-based, human
How it was run: as §1

[7] = tested on: human MLR, peripheral blood mononuclear cells; assay: Inhibition of the mixed lymphocyte reaction (MLR), tritiated thymidine uptake; assay type: cell-based; parameters: key: Data are reported as “+” or “−” at a given concentration (in μM); Data are reported as “+” or “−” at a given concentration (in μM)
Protocol: Assay to Determine Inhibition the Mixed Lymphocyte Reaction
As discussed above, ICAM-1 is necessary for effective cellular interactions during an immune response mediated through LFA-1-dependent cell adhesion. When lymphocytes from two unrelated individuals are cultured together, blast transformation and cell proliferation of the lymphocytes are observed. This response is known as a mixed lymphocyte reaction (MLR) and is analogous to the response of lymphocytes to the 10 addition of antigens or mitogens (Immunology: The Science of Self-Nonself Discrimination; Klein, J., Ed.; John Wiley & Sons: NY, 1982, pp 453-458).
This assay protocol is used to determine the effect of a test compound on the human MLR.
Description of Assay Protocol:
Peripheral blood is obtained from normal, healthy donors by venipuncture. The blood is collected in heparinized tubes and diluted 1:1 at room temperature with Puck's G (GIBCO) balanced salt solution (BSS). The blood mixture (20 mL) is layered over 15 mL of a Ficoll/Hypaque density gradient (Pharmacia, density=1.078, room temperature) and centrifuged at 1000·g for 20 minutes. The interface is then collected and washed 3 times in Puck's G. The cells are counted on a hemocytometer and resuspended in RPMI 1640 culture medium (GIBCO) containing 0.5% of gentamicin, 1 mM L-glutamine (GICO) and 5% heat inactivated (56° C., 30 min) human AB sera (Flow Laboratories) (hereafter referred to as RPMI-culture medium).
Stimulator cells (cells that have been treated with irradiation so that they are unable to proliferate) from a separate donor are cultured with the responder cells at the same concentration. Test compound is added to wells at various concentrations. The total volume per culture is 0.2 mL. Controls include compound vehicle alone (DMSO), responder cells alone, and stimulator cells alone. The culture plates are incubated at 37° C. in a 5% CO2-humidified air atmosphere for 5 days.
The wells are pulsed with 0.5 μCi of tritiated thymidine (^3HT) (New England Nuclear) for the last 18 h of culture. In some cases a two-way MLR can be performed. The protocol is the same except that the second donor's cells are not inactivated by irradiation.
The cells are harvested onto glass fiber filters using an automated multiple sample harvester (Skatron, Norway), and rinsed with water and methanol. The filters are oven dried and counted in Aquasol in a Beckman (LS-3801) liquid scintillation counter.
Data are reported as “+” or “−” at a given concentration (in μM).

[8] = values marked e approximated from incomplete dose-response curve
[9] = No inh = no inhibition observed up to highest dose, exact quantification not always possible due to intrinsic toxicity
[10] = SKW3, values marked c: no inhibition observed up to highest dose
[11] = values marked c: no inhibition observed up to highest dose

T1 sequence (P20701 26-1170): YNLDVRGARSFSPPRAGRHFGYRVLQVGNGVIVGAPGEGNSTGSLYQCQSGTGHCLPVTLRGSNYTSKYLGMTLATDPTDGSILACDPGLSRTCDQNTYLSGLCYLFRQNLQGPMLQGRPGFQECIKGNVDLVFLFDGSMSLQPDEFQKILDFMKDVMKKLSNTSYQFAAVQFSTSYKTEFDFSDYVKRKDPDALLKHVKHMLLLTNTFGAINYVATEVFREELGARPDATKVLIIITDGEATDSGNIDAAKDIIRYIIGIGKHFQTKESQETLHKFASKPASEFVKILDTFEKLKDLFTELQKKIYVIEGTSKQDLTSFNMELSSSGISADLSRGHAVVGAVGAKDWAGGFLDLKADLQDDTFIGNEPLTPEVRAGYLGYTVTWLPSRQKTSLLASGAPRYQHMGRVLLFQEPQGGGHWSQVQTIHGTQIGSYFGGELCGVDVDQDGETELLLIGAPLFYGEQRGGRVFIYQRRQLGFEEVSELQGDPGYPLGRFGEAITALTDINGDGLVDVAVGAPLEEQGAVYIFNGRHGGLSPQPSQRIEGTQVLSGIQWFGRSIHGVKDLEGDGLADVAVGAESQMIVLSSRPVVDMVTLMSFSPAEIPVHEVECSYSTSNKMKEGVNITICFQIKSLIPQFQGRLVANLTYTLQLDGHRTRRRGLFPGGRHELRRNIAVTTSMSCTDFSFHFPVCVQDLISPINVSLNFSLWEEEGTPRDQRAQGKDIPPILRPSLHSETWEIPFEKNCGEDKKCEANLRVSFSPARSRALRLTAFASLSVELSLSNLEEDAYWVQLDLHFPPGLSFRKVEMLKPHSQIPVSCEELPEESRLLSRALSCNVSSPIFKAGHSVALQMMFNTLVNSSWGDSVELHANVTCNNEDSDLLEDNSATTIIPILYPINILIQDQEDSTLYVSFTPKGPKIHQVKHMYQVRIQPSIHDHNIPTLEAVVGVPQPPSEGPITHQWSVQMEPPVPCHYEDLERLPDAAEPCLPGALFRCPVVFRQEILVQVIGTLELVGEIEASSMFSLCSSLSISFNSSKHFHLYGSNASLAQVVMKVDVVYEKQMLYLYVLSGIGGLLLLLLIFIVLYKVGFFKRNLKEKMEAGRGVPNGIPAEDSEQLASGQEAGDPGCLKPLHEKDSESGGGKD
T1 sequence (P05107 23-769): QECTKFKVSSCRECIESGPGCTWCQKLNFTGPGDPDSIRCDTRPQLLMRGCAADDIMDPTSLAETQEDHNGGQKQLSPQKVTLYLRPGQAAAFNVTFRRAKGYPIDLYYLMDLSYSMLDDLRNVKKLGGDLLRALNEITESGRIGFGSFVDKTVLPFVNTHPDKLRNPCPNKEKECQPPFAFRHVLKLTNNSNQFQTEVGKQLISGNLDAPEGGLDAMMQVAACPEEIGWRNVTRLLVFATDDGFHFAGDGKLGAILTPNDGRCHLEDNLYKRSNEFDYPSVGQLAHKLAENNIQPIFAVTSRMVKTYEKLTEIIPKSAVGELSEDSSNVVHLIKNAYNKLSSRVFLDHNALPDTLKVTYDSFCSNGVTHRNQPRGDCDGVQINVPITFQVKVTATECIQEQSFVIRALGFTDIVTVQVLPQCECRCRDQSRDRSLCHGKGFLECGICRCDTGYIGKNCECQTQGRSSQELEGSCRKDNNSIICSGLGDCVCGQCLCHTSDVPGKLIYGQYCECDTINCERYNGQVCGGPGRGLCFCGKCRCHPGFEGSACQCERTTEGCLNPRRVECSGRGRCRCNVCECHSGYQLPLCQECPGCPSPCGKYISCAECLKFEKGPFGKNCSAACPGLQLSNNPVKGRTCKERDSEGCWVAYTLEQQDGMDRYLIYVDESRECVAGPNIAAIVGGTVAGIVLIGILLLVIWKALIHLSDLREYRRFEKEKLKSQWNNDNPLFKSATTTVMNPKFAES

SMILES	melting point [°C]	Kd [1, 8] [nM]	also measured
COc1c(F)c(F)c(CC2(C)NC(=O)N(c3cc(Cl)cc(Cl)c3)C2=O)c(F)c1F (stereo not shown) [Example 61]	122 to 123	2350	
CC1(Cc2ccc(Cl)c(Cl)c2)NC(=O)N(c2cc(Cl)cc(Cl)c2)C1=O (stereo not shown) [Example 55]	150 to 151	200	
CC1(Cc2ccc(F)c(F)c2)NC(=O)N(c2cc(Cl)cc(Cl)c2)C1=O (stereo not shown) [Example 54]	117 to 118	420	
CC1(Cc2ccc(-c3ccccc3)cc2)NC(=O)N(c2cc(Cl)cc(Cl)c2)C1=O (stereo not shown) [Example 49]	61 to 63	260	
CC1(Cc2ccc(F)c(C(F)(F)F)c2)NC(=O)N(c2cc(Cl)cc(Cl)c2)C1=O (stereo not shown) [Example 69]	168 to 170	~70000	
CC1(Cc2ccc(SC(F)(F)F)cc2)NC(=O)N(c2cc(Cl)cc(Cl)c2)C1=O (stereo not shown) [Example 60]	133 to 134	230	
CN1C(=O)N(c2cc(Cl)cc(Cl)c2)C(=O)[C@@]1(C)Cc1ccc(Br)cc1 [Example 271]			IC50 ([2]; SKW3): 3 µM; ED50 [3]: ~20 mg/kg; Cellular Toxicity Assay MTT LD50 [4]: 250 to 500 µM; IC50 [5]: 100 nM; Assay to Detect SKW3 Cells Binding to FIBRONECTIN IC50 [6, 9]: No inh^c
CC1(Cc2ccccc2OC(F)(F)F)NC(=O)N(c2cc(Cl)cc(Cl)c2)C1=O (stereo not shown) [Example 66]	153 to 155	2850	
CC1(Cc2ccc3c(Cl)cc(C(F)(F)F)nc3c2)NC(=O)N(c2cc(Cl)cc(Cl)c2)C1=O (stereo not shown) [Example 59]	173 to 174	330	
CC1(Cc2cccc(SC(F)(F)F)c2)NC(=O)N(c2cc(Cl)cc(Cl)c2)C1=O (stereo not shown) [Example 65]	170 to 171	1320	
CC1(Cc2ccc(C(F)(F)F)c(F)c2)NC(=O)N(c2cc(Cl)cc(Cl)c2)C1=O (stereo not shown) [Example 62]	67 to 69	160	
Cc1cc(C)cc(CC2(C)NC(=O)N(c3cc(Cl)cc(Cl)c3)C2=O)c1 (stereo not shown) [Example 50]	> 240	~17000	
CC1(Cc2ccc(Cl)s2)NC(=O)N(c2cc(Cl)cc(Cl)c2)C1=O (stereo not shown) [Example 64]	55 to 56	1450	
CC1(Cc2ccc(C(F)(F)F)c(F)c2F)NC(=O)N(c2cc(Cl)cc(Cl)c2)C1=O (stereo not shown) [Example 67]	163 to 164	3540	
CC(=O)N1C(=O)N(c2cc(Cl)cc(Cl)c2)C(=O)[C@@]1(C)Cc1ccc(-c2cccnc2)cc1 [Example 125]		110	IC50 [2, 10]: 1 to 3 µM; ED50 [3]: ~90 mg/kg; Cellular Toxicity Assay MTT LD50 [4]: >400 µM; IC50 [5]: 400 nM; Assay to Detect SKW3 Cells Binding to FIBRONECTIN IC50 [6, 11]: No inh^c
CN1C(=O)N(c2cc(Cl)c(Cl)c(Cl)c2)C(=O)[C@@]1(C)Cc1ccc(Br)cc1 [Example 123]		100	IC50 [2, 10]: 12 to 25 µM; Cellular Toxicity Assay MTT LD50 [4]: 50 to 100 µM; IC50 [5]: 600 nM; IC50 ([6]; Homo sapiens, SKW3, values marked c: no inhibition observed up to highest dose, read-out: Assay to Detect SKW3 Cells Binding to FIBRONECTIN IC50): > 25 µM; Mixed Lymphocyte Reaction MLR +/− ([7]; at 50 μM): +(50)
CN1C(=O)N(c2cc(Cl)cc(Cl)c2)C(=O)C1(C)Cc1ccc([N+](=O)[O-])cc1 (stereo not shown) [Example 157]		37	IC50 [2, 10]: 5 to 10 µM; Cellular Toxicity Assay MTT LD50 [4]: >390 µM; IC50 [5]: 400 nM; Assay to Detect SKW3 Cells Binding to FIBRONECTIN IC50 [6, 11]: No inh^c; Mixed Lymphocyte Reaction MLR +/− ([7]; at 25 μM): +(25)
C[C@@]1(Cc2ccc(Br)cc2)C(=O)N(c2cc(Cl)cc(Cl)c2)C(=O)N1Cc1cccc(C(=O)O)c1 [Example 229]			IC50 ([2]; SKW3): 6 to 13 µM; Cellular Toxicity Assay MTT LD50 [4]: 50 to 100 µM; IC50 [5]: 3100 nM; Assay to Detect SKW3 Cells Binding to FIBRONECTIN IC50 [6, 9]: No inh^c; Kd [1]: 300 nM; Mixed Lymphocyte Reaction MLR +/− ([7]; at 50 μM): +(50)
